Tests used:
[1] = target: T1, BCDIN3D (Homo sapiens, UniProt Q7Z5W3); assay: BCDIN3D IC50 RFMS (RapidFire) assay with mini-helix; format: biochemical; conditions: mini-helix substrate 0.2 μM, SAM 6 μM, 25 nM enzyme
T1 sequence (Q7Z5W3 1-292): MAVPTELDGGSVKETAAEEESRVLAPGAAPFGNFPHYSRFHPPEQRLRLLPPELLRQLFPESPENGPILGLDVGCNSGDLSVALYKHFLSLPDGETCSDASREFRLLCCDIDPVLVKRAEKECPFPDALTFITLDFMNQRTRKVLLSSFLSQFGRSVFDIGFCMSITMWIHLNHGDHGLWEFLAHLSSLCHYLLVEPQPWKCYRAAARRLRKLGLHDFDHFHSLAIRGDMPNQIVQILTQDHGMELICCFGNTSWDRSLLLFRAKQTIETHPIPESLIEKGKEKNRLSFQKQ
Summary of the method: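 SAH formation was measured by RapidFire mass spectrometry with D4- and 13C10-SAH internal standards after TCA quench. Substrates 6 μM SAM and 0.2 μM mini-helix reacted 1 h at 37 °C with 25 nM enzyme, which had been preincubated 10 min with compound (1% DMSO) in Tris pH 8.0 buffer with DTT, EDTA, BSA.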

[2] = target: T1, BCDIN3D; assay: BCDIN3D InCellPulse thermal stability assay in transfected A549 cells; format: cell-based; conditions: transiently transfected A549 cells, heat shock 58° C. 15 min
Summary of the method: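 Thermal stabilisation read-out: after a 15 min 58 °C heat shock, ePL-tagged BCDIN3D in transiently transfected A549 cells (1500/well) was quantified by enzyme-fragment complementation luminescence. Compounds were pre-incubated with cells 1 h at 37 °C, 0.6% DMSO final.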

Structure (SMILES)	IC50 [1] [nM]	IC50 [2] [nM]
Cn1ncc2c(Nc3ccc(OC(F)F)cc3)nc(NCC3(N)CCC3)nc21 [Compound 3.09, N6-[(1-aminocyclobutyl)methyl]-N4-[4-(difluoromethoxy)phenyl]-1-methyl-pyrazolo[3,4-d]pyrimidine-4,6-diamine]	201	503
Cn1ncc2c(NC(C)(C)C)nc(NCC(N)C3CCCCC3)nc21 (stereo not shown) [Compound 3.10, N6-(2-amino-2-cyclohexyl-ethyl)-N4-tert-butyl-1-methyl-pyrazolo[3,4-d]pyrimidine-4,6-diamine]	228	123
Cn1ncc2c(Nc3ccc(C(F)(F)F)cc3)nc(NCC(N)C3CCCCC3)nc21 (stereo not shown) [Compound 3.11, N6-(2-amino-2-cyclohexyl-ethyl)-1-methyl-N4-[4-(trifluoromethyl)phenyl]pyrazolo[3,4-d]pyrimidine-4,6-diamine]	101	65.4
Cn1ncc2c(Nc3ccc(C(F)(F)F)cc3)nc(NCC3(N)CC(F)(F)C3)nc21 [Compound 3.12, 6-N-[(1-amino-3,3-difluorocyclobutyl)methyl]-1-methyl-4-N-[4-(trifluoromethyl)phenyl]pyrazolo[3,4-d]pyrimidine-4,6-diamine]	479	1570
Cn1ncc2c(Nc3ccc(C(F)(F)F)cc3)nc(NCC(N)C3CC3)nc21 (stereo not shown) [Compound 3.13, 6-N-(2-amino-2-cyclopropylethyl)-1-methyl-4-N-[4-(trifluoromethyl)phenyl]pyrazolo[3,4-d]pyrimidine-4,6-diamine]	180	510
Cn1ncc2c(Nc3ccc(C(F)(F)F)cc3)nc(NCC3(N)CCOC3)nc21 (stereo not shown) [Compound 3.14, 6-N-[(3-aminooxolan-3-yl)methyl]-1-methyl-4-N-[4-(trifluoromethyl)phenyl]pyrazolo[3,4-d]pyrimidine-4,6-diamine]	252	2410
Cn1ncc2c(Nc3ccc(C(F)(F)F)nc3)nc(NCC3(N)CCOC3)nc21 (stereo not shown) [Compound 3.15, N6-[(3-aminotetrahydrofuran-3-yl)methyl]-1-methyl-N4-[6-(trifluoromethyl)-3-pyridyl]pyrazolo[3,4-d]pyrimidine-4,6-diamine]	1630	6540
Cn1ncc2c(Nc3ccc(C(F)(F)F)cc3)nc(NCC3COCCN3)nc21 (stereo not shown) [Compound 3.16, 1-methyl-N6-[(morpholin-3-yl)methyl]-N4-[4-(trifluoromethyl)phenyl]-1H-pyrazolo[3,4-d]pyrimidine-4,6-diamine]	9920	60000
Cn1ncc2c(Nc3ccc(C(F)(F)F)cc3)nc(NCC3(N)CCCC3)nc21 [Compound 3.18, 6-N-[(1-aminocyclopentyl)methyl]-1-methyl-4-N-[4-(trifluoromethyl)phenyl]pyrazolo[3,4-d]pyrimidine-4,6-diamine]	88	335
Cn1ncc2c(Nc3ccc(C(F)(F)F)nc3)nc(NCC3(N)CCCC3)nc21 [Compound 3.19, 6-N-[(1-aminocyclopentyl)methyl]-1-methyl-4-N-[6-(trifluoromethyl)pyridin-3-yl]pyrazolo[3,4-d]pyrimidine-4,6-diamine]	357	1240
Cn1ncc2c(Nc3ccc(OC(F)F)cc3)nc(NCC3(N)CCCC3)nc21 [Compound 3.20, 6-N-[(1-aminocyclopentyl)methyl]-4-N-[4-(difluoromethoxy)phenyl]-1-methylpyrazolo[3,4-d]pyrimidine-4,6-diamine]	305	724
Cn1ncc2c(Nc3ccccc3)nc(NCC3(N)CCCC3)nc21 [Compound 3.21, 6-N-[(1-aminocyclopentyl)methyl]-1-methyl-4-N-phenylpyrazolo[3,4-d]pyrimidine-4,6-diamine]	1440	2000
Cn1ncc2c(Nc3ccc(C#N)cc3)nc(NCC3(N)CCCC3)nc21 [Compound 3.22, 4-[[6-[(1-aminocyclopentyl)methylamino]-1-methylpyrazolo[3,4-d]pyrimidin-4-yl]amino]benzonitrile]	1800	2260
Cn1ncc2c(Nc3ccc(OC(F)(F)F)cc3)nc(NCC3(N)CCCC3)nc21 [Compound 3.23, 6-N-[(1-aminocyclopentyl)methyl]-1-methyl-4-N-[4-(trifluoromethoxy)phenyl]pyrazolo[3,4-d]pyrimidine-4,6-diamine]	115	267
[2H]C([2H])([2H])n1ncc2c(Nc3ccc(C(F)(F)F)cc3)nc(NCC3(N)CCC3)nc21 [Compound 3.24, N6-[(1-aminocyclobutyl)methyl]-1-(trideuteriomethyl)-N4-[4-(trifluoromethyl)phenyl]pyrazolo[3,4-d]pyrimidine-4,6-diamine]	45	481
Cc1ccc(CNc2nc(NCC(N)CF)nc3c2cnn3C)cc1Cl (stereo not shown) [Compound 3.25, N6-(2-Amino-3-fluoropropyl)-N4-[(3-chloro-4-methylphenyl)methyl]-1-methyl-1H-pyrazolo[3,4-d]pyrimidine-4,6-diamine]	6170	5500
Cn1ncc2c(Nc3ccc(C(F)(F)F)cc3)nc(NCC(N)CF)nc21 (stereo not shown) [Compound 3.26, 6-N-(2-amino-3-fluoropropyl)-1-methyl-4-N-[4-(trifluoromethyl)phenyl]pyrazolo[3,4-d]pyrimidine-4,6-diamine]	3000	4030
COCC(N)CNc1nc(NCc2ccc(C)c(Cl)c2)c2cnn(C)c2n1 (stereo not shown) [Compound 3.27, 6-N-(2-amino-3-methoxypropyl)-4-N-[(3-chloro-4-methylphenyl)methyl]-1-methylpyrazolo[3,4-d]pyrimidine-4,6-diamine]	4310	4790
Cn1ncc2c(Nc3ccc(C(F)(F)F)cc3)nc(NCC3(N)COC3)nc21 [Compound 3.28, 6-N-[(3-Aminooxetan-3-yl)methyl]-1-methyl-4-N-[4-(trifluoromethyl)phenyl]pyrazolo[3,4-d]pyrimidine-4,6-diamine]	383	4670
Cn1ncc2c(Nc3ccccc3)nc(NCC3(N)COC3)nc21 [Compound 3.29, 6-N-[(3-Aminooxetan-3-yl)methyl]-1-methyl-4-N-phenylpyrazolo[3,4-d]pyrimidine-4,6-diamine]	4920	60000
Cc1ccc(CNc2nc(NC3CCCCC3N)nc3c2cnn3C)cc1Cl (stereo not shown) [Compound 3.30, N6-(2-aminocyclohexyl)-N4-[(3-chloro-4-methylphenyl)methyl]-1-methyl-1H-pyrazolo[3,4-d]pyrimidine-4,6-diamine]	1140	1410

More lines, now with the values ahead:

IC50 [1] [nM]	IC50 [2] [nM]	Structure (SMILES)
325	1940	[2H]C([2H])([2H])n1ncc2c(NC(C)(C)C)nc(NCC(C)(N)c3ccccc3)nc21 (stereo not shown) [Compound 4.01, N6-(2-Amino-2-phenyl-propyl)-N4-tert-butyl-1-(trideuteriomethyl)pyrazolo[3,4-d]pyrimidine-4,6-diamine]
4280	5670	CCn1ncc2c(NC(C)C)nc(NCC(N)c3ccccc3)nc21 (stereo not shown) [Compound 4.02, 6-N-(2-Amino-2-phenylethyl)-1-ethyl-4-N-propan-2-ylpyrazolo[3,4-d]pyrimidine-4,6-diamine]
62.5	166	Cc1ccc(CNc2nc(NCC(N)c3ccccc3)nc3c2cnn3C)cc1Cl (stereo not shown) [Compound 4.03, 6-N-(2-amino-2-phenylethyl)-4-N-[(3-chloro-4-methylphenyl)methyl]-1-methylpyrazolo[3,4-d]pyrimidine-4,6-diamine]
424	820	Cn1ncc2c(NCc3ccc(F)cc3F)nc(NCC(N)c3ccccc3)nc21 (stereo not shown) [Compound 4.04, 6-N-(2-amino-2-phenylethyl)-4-N-[(2,4-difluorophenyl)methyl]-1-methylpyrazolo[3,4-d]pyrimidine-4,6-diamine]
109	275	Cn1ncc2c(NCc3ccc(F)c(Cl)c3)nc(NCC(N)c3ccccc3)nc21 (stereo not shown) [Compound 4.05, 6-N-(2-amino-2-phenylethyl)-4-N-[(3-chloro-4-fluorophenyl)methyl]-1-methylpyrazolo[3,4-d]pyrimidine-4,6-diamine]
87.2	139	Cn1ncc2c(NCc3cccc(Br)c3)nc(NCC(N)c3ccccc3)nc21 (stereo not shown) [Compound 4.06, 6-N-(2-amino-2-phenylethyl)-4-N-[(3-bromophenyl)methyl]-1-methylpyrazolo[3,4-d]pyrimidine-4,6-diamine]
132	282	Cn1ncc2c(NCc3ccc(Br)cc3)nc(NCC(N)c3ccccc3)nc21 (stereo not shown) [Compound 4.07, 6-N-(2-amino-2-phenylethyl)-4-N-[(4-bromophenyl)methyl]-1-methylpyrazolo[3,4-d]pyrimidine-4,6-diamine]
1080	2950	Cn1ncc2c(NCc3ccc(C(F)(F)F)nc3)nc(NCC(N)c3ccccc3)nc21 (stereo not shown) [Compound 4.08, 6-N-(2-amino-2-phenylethyl)-1-methyl-4-N-[[6-(trifluoromethyl)pyridin-3-yl]methyl]pyrazolo[3,4-d]pyrimidine-4,6-diamine]
